# Test results reported in PMC8863071, “Functional Analysis of H^+-Pumping Membrane-Bound Pyrophosphatase, ADP-Glucose Synthase, and Pyruvate Phosphate Dikinase as Pyrophosphate Sources in Clostridium thermocellum” (Applied and Environmental Microbiology, 2022).
# Target: T1, ADP-glucose synthase (Ags; ags1 ags2) (Acetivibrio thermocellus, UniProt A3DK82)
# T1 construct: gene glgC; both subunits co-expressed untagged from pTrc99a (pTK30) in E. coli BL21; cell extract
# T1 sequence (A3DK82 1-426): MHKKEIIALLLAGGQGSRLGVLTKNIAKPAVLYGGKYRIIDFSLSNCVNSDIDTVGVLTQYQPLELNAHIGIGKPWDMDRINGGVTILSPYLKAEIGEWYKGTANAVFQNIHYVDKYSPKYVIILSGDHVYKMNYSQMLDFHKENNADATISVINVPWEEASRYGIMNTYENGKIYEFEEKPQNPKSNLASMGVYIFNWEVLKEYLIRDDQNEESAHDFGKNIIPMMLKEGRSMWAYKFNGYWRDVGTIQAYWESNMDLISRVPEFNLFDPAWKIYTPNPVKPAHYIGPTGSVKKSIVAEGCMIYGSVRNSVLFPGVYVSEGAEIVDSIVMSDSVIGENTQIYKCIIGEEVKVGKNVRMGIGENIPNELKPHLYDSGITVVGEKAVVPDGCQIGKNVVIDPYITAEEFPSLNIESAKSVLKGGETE
# T1 sequence (A3DK83 1-373 partner): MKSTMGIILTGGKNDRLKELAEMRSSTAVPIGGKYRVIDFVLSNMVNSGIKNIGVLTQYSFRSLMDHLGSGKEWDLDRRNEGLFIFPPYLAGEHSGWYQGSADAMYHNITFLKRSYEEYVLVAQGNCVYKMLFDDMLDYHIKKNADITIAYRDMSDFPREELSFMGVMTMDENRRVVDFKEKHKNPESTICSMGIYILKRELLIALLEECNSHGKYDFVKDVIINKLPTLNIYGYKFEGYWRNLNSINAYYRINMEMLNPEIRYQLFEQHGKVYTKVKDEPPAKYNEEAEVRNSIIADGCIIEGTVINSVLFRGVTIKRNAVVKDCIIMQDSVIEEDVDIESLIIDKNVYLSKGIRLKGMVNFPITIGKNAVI
# Assay: coupled NADP+ assay, pyrophosphorolysis direction
# Assay type: biochemical
# Settings: 1 mM ADP-glucose, 1 mM PPi, 4 mM MgCl2, 2 mM fructose-1,6-bisphosphate, pH 7.5, 55°C
smiles,measurement,value
Nc1ncnc2c1ncn2[C@@H]1O[C@H](COP(=O)(O)OP(=O)(O)O[C@H]2O[C@H](CO)[C@@H](O)[C@H](O)[C@H]2O)[C@@H](O)[C@H]1O [ADP-glucose],"coupled NADP+ assay, pyrophosphorolysis direction",the activity was found to be ADP-glucose dependent
